Assay results from patent US10597368B2, “Syringolin analogues and methods of making and using same” (BROWN UNIVERSITY, priority 2015, dated 2020).

Columns and labels:
HL-60 = experiment: NCI dose-dependent growth inhibition, HL-60; assay type: cell-based; conditions: Homo sapiens; HL-60, 48-h exposure
Source text: (§1) The three compounds were particularly active against leukemia cell lines. […] Without wishing to be limited by any theory, such differences in biochemical and biological patterns may be explained by differences in the cell permeabilities or stabilities of the two compounds. […] Data provided by the National Cancer Institute (NCI): […] The optical density of the test well after a 48-h period of exposure to test drug is T, the optical density at time zero is T0, and the control optical density is C. The “50” is called the […] parameter that can have values from +100 to -100.

RPMI-8226 = experiment: NCI dose-dependent growth inhibition, RPMI-8226; assay type: cell-based; conditions: Homo sapiens; RPMI-8226, 48-h exposure
Source text: as §1

SR = experiment: NCI dose-dependent growth inhibition, SR; assay type: cell-based; conditions: Homo sapiens, 48-h exposure
Source text: as §1

K-562 = experiment: NCI dose-dependent growth inhibition, K-562; assay type: cell-based; conditions: Homo sapiens, K562; K-562, 48-h exposure
Source text: as §1

MOLT-4 = experiment: NCI dose-dependent growth inhibition, MOLT-4; assay type: cell-based; conditions: Homo sapiens; MOLT-4, 48-h exposure
Source text: as §1

[1] = target: T1, human 20S proteasome (hs20S), chymotrypsin-like β5-subunits (Homo sapiens, UniProt P20618+P28074); experiment: In vitro 20S peptidase inhibition kinetics, chymotrypsin-like activity (Suc-LLVY-AMC); assay type: biochemical; conditions: second-order rate constant, Suc-LLVY-AMC substrate, 37° C.
T1 construct: purchased R&D
Description: In vitro 20S peptidase inhibition assays were recorded in a 384-well plate at a SpectraMax M5 (Molecular devises) plate-reader. Therefore, 5 nM human 20S (R&D) was incubated in buffer R (50 mM HEPES-KOH, pH 7.5, 0.5 mM EDTA) with 100 μM of the fluorogenic peptide substrates Suc-LLVY-AMC or Boc-LRR-AMC. Reactions were started by adding various amounts of inhibitors (5 nM to 500 μM) to a final volume of 30 μL and peptide hydrolysis was continuously monitored for 90 min by changes in fluorescence (excitation 380 nm; emission 440 nm) at 37° C. The kobs values were determined by fitting the raw data to equation (1). The slopes of the plots of kobsversus I gave an apparent value of kobs/I, also referred to as kinact/Ki for an irreversible inhibitor, which was then corrected by equation (2) to compensate for the effect of substrate competition, where app is the apparent value at different inhibitor concentrations.
Using purified human 20S proteasome (hs20S) and a fluorogenic substrate (Suc-LLVY-AMC), in vitro assays were performed to systematically assess proteasome inhibition by the syringolin analogues. The choice of substrate was based on the fact that it is preferentially acted upon by the chymotrypsin-like β5-subunits of the proteasome due to the aromatic tyrosine residue at the scissile bond (i.e., P1 position).
From measurements of the rates of hydrolysis of the fluorogenic substrate by the proteasome in the presence of increasing concentrations of each inhibitor, second-order rate constants kin/Ki (M^−1 s^−1) were determined (Table 1), which reflect both the affinity of the non-covalent binding (Ki) and the rate of the chemical reaction with the enzyme (kin). All of the syringolin analogues were capable in inhibiting the chymotrypsin-like activity of hs20S. Without wishing to be limited by any theory, consistent with the design predictions, the most significant contributor to the apparent second-order rate constants of the compounds was their binding affinity (Ki) rather than the rates of inhibition.
In vitro 20S peptidase inhibition assays were recorded in a 384-well plate at a SpectraMax M5 (Molecular Devices) plate-reader. Therefore, 5 nM human 20S (R&D) was incubated in buffer R (50 mM HEPEs-KOH, pH 7.5, 0.5 mM EDTA) with 100 μM of the fluorogenic peptide substrate Suc-LLVY-AMC. Reactions were started by adding various amounts of inhibitors 5 nM to 500 μM) to a final volume of 30 μL and peptide hydrolysis was continuously monitored for 90 minutes by changes in fluorescence (excitation 380 nm; emission 440 nm) at 37 degrees Celsius. The kobs values were determined by fitting the raw data to equation 1. The slopes of the plots of kobs versus I gave an apparent value of kob/I, also referred to as kinact/Ki for an irreversible inhibitor, which was then corrected by equation 2 to compensate for the effect of substrate competition, where app is the apparent value at different inhibitor concentrations.

[2] = test system: 60 different cancer cell lines; experiment: NCI single-dose growth assay with 60 cancer cell lines; assay type: cell-based; conditions: 10 μM, average over the panel of cell lines
Description: FIG. 6 illustrates the in vitro inhibition results for compound 1, while FIG. 7 illustrates the in vitro inhibition results for compound 13. FIG. 8 illustrates the in vitro inhibition results for compound 14, while FIG. 9 illustrates the in vitro inhibition results for compound 15. FIG. 10 illustrates the in vitro inhibition results for compound 16. […] Specifically, cell lines incubated in media with 10 μM of compound 15 grew at an average of 30% of those incubated in media without compound. The mean growth of the cell lines in media with the same concentration of compound 16 was approximately 71% of those in negative control experiments.

leukemia cell lines = experiment: NCI dose-dependent growth inhibition, leukemia cell lines overall; assay type: cell-based; conditions: as much as, fold more potent
Source text: as §1

COC(=O)[C@@H](NC(=O)N[C@H](C(=O)N[C@H]1CCCCNC(=O)/C=C/[C@H](C(C)C)NC1=O)C(C)C)C(C)C [Compound 1, Syringolin B Methyl Ester, reference compound]
GI50 (HL-60): 5.41 µM
GI50 (RPMI-8226): 3.97 µM
GI50 (SR): 5.13 µM
GI50 (K-562): 6.12 µM
GI50 (MOLT-4): 4.73 µM

COC(=O)[C@@H](NC(=O)N[C@@H](Cc1ccccc1)C(=O)N[C@H]1CCCCNC(=O)/C=C/[C@H](Cc2ccccc2)NC1=O)C(C)C [Compound 15, (S)-methyl 2-(3-((S)-1-(((5S,8S,E)-5-benzyl-2,7-dioxo-1,6-diazacyclododec-3-en-8-yl)amino)-1-oxo-3-phenylpropan-2-yl)ureido)-3-methylbutanoate]
GI50 (HL-60): 4.34 µM
GI50 (RPMI-8226): 2.72 µM
GI50 (SR): 2.78 µM
hs20S kin/Ki [1]: 4,199 M^−1s^−1
GI50 (K-562): 14.6 µM
mean growth of cell lines relative to media without compound [2]: 30%
GI50 (MOLT-4): 3.32 µM

COC(=O)[C@@H](NC(=O)N[C@@H](Cc1ccccc1)C(=O)N[C@H]1CCCCNC(=O)/C=C/[C@H](Cc2c[nH]c3ccccc23)NC1=O)C(C)C [Compound 16]
GI50 (HL-60): 1.29 µM
GI50 (RPMI-8226): 0.343 µM
GI50 (SR): 0.453 µM
GI50 (K-562): 2.94 µM
mean growth of cell lines relative to media without compound [2]: approximately 71%
potency relative to syringolin B methyl ester (1) against the leukemia cell lines (leukemia cell lines): ≤ 11.5 fold
GI50 (MOLT-4): 0.599 µM
